Reference: patent US20110117009A1, “DRUG CONJUGATES WITH POLYGLYCEROLS” (FREIE UNIVERSITÄT BERLIN, priority 2008, published 2011)
Marks after values point to notes of the source that are not given here.

Experiments:
[1] = system: human ovarian cancer xenografts (A2780); assay: In vivo efficacy in the ovarian carcinoma A2780 xenograft model; design: species or system female NMRI: nu/nu mice; conditions: doxorubicin 2×8 mg/kg, conjugates 3×24 mg/kg doxorubicin equivalents
Experimental: The mice were held in individually ventilaged cages (IVC) under sterile and standardized environmental conditions (25±2° C. room temperature, 50±10% relative humidity, 12 hour light-dark-rhythm). They received autoclaved food and bedding (ssniff, Soest, Germany) and acidified (pH 4.0) drinking water ad libitum. […] Mice were randomly distributed to the experimental groups (8 mice per group). When the tumors were grown to a palpable size, treatment was initiated.
(§1) Tumor size was measured twice weekly with a caliper-like instrument in two dimensions. Individual tumor volumes (V) were calculated by the formula V=(length×[width]^2)/2 and related to the values on the first day of treatment (relative tumor volume, RTV). Statistical analysis was performed with the U-test (Mann and Whitney) with p<0.05. The body weight of mice was determined every 3 to 4 days.

AsPC1 LN = assay: Cytotoxicity, luciferase readout after 72 h; assay type: cell-based; conditions: Homo sapiens
Experimental: After 72 h cells were lysed in 100 μL of luciferase assay buffer, and an aliquot of the lysate was assayed for luciferase activity.

[2] = nude mice models, e.g. 2×12 mg/kg; cited from earlier work
[3] = Tolerability (mortality, body weight change) in the A2780 xenograft study; assay type: in vivo, female NMRI: nu/nu mice; conditions: i.v. weekly, doxorubicin 2×8 mg/kg, conjugates 3×24 mg/kg doxorubicin equivalents
Experimental: In vivo efficacy studies were carried out with compounds 1-A, 1-B, and 1-C and doxorubicin in the ovarian carcinoma A2780 xenograft model. For the in vivo testing, female NMRI: nu/nu mice (Taconic, Denmark) were used. The mice were held in individually ventilaged cages (IVC) under sterile and standardized environmental conditions (25±2° C. room temperature, 50±10% relative humidity, 12 hour light-dark-rhythm). They received autoclaved food and bedding (ssniff, Soest, Germany) and acidified (pH 4.0) drinking water ad libitum. A2780 tumor fragments were transplanted subcutaneously (s.c.) into the left flank region of anaesthetized (40 mg/kg i.p. Radenarkon, Asta Medica, Frankfurt, Germany) mice on day zero. […]
as §1, with “Statistical analysis was performed with the U-test (Mann and Whitney) with p<0.05.” left out
The standard and maximum tolerated dose of doxorubicin (2×8 mg/kg) was compared to compounds 1-A, 1-B, and 1-C at 3×24 mg/kg (doxorubicin equivalents). […] J. Drug Targeting, 8: 305-318, 2000; Trail et al.: Antigen-specific activity of carcinoma-reactive BR64-doxorubicin conjugates evaluated in vitro and in human tumor xenograft models. […]

SMILES: COc1cccc2c1C(=O)c1c(O)c3c(c(O)c1C2=O)C[C@@](O)(C(=O)CO)C[C@@H]3O[C@H]1C[C@H](N)[C@H](O)[C@H](C)O1 [Doxorubicin, doxorubicin]
- antitumor efficacy (in words) ([1]; A2780 xenografts): moderate antitumor efficacy
- optimum T/C RTV ([1]; i.v. weekly, relative tumor volume treated versus control): 15* %
- IC50 (AsPC1 LN): 360 nM
- toxicity at higher doses [2]: unacceptable toxicity and mortality
- toxic death ([3]; 8 mice per group): 0
- BWC (body weight change) ([3]; day in brackets): −21 (d26) %
